# Legend:
# [1] = tested on: human CD34+ hematopoietic stem cells (HSC); assay: Hematopoietic stem cell expansion, CD34+ cells by flow cytometry after 12-day culture; assay type: cell-based
# Procedure: The ability of compounds of formula (I) to facilitate hematopoietic stem cell expansion was determined by testing 1-methyl-7-(2-methyl-4-(6-(trifluoromethyl)pyrido[3,2-d]pyrimidin-2-yl)phenyl)-6,7-dihydro-1H-pyrazolo[3,4-f][1,4]oxazepin-8(5H)-one (compound 1) and 3-methyl-5-(2-methyl-4-(6-(trifluoromethyl)quinazolin-2-yl)phenyl)-6,7-dihydropyrazolo[1,5-a]pyrazin-4(5H)-one (compound 2) as follows.
# Isolated human CD34^+ hematopoietic stem cells (HSC) were obtained from AllCells (Alameda, Calif., USA). 5,000 HSC per well were cultivated in 100 μL HSC expansion media StemSpan SFEM (StemCell Technologies; Vancouver, BC, Canada) containing 1× antibiotics (Life Technologies, Carlsbad, Calif., USA), 100 ng/mL thrombopoietin, 100 ng/mL IL-6, 100 ng/mL Flt3 ligand and 100 ng/mL stem cell factor (all R&D Systems, Minneapolis, Minn., USA) in a flat bottom 96 well tissue culture plate. 100 μL of 3-fold serial diluted compound 1 or 2 (final concentration range 0.169-10,000 nM) was added at 2× of the final concentration to HSC culture and HSC culture plates were incubated in a humidity-controlled incubator at […], 5% CO2. After 12 days, the absolute viable cell counts from each well were determined. HSC were then stained in staining buffer composed of Hank's balanced salt solution with 2% fetal bovine serum and 2 mM EDTA (all Life Technologies) at 4° C. for 1 hour with anti-CD90 APC, anti-CD34 PerCP, anti-CD38 FITC, CD45RA PE-Cy7 and anti-CD133 PE antibodies (all BD Biosciences, San Jose, Calif., USA). HSC were washed with staining buffer and HSC were analyzed by multicolor phenotype flow cytometry. The percentages of CD34^+ cells were determined as percentage of total population. Absolute counts of each population were calculated from the total number of viable cells multiplied by the percentage of each population. The EC50 value for the frequency of CD34+ cells, defined as the compound concentration with half maximal response on the dose response curve, was calculated using Prism 7 (GraphPad Software, La Jolla, Calif., USA).
# [2] = molecular target: T1, hAhR (Homo sapiens, UniProt P35869); assay: AhR antagonist DRE-luciferase reporter transcriptional assay (TCDD-induced) in HEPG2 DRE-Luc cells; assay type: cell-based; settings: relative IC50, HEPG2 DRE-Luc cells, 3 nM TCDD, 24 h incubation; read-out: IC50 hAhR (antagonist mode)
# T1 construct: endogenous in cells; host or cells: HEPG2 cells with stably integrated Cignal XRE (DRE) luciferase reporter
# T1 sequence (P35869 11-848): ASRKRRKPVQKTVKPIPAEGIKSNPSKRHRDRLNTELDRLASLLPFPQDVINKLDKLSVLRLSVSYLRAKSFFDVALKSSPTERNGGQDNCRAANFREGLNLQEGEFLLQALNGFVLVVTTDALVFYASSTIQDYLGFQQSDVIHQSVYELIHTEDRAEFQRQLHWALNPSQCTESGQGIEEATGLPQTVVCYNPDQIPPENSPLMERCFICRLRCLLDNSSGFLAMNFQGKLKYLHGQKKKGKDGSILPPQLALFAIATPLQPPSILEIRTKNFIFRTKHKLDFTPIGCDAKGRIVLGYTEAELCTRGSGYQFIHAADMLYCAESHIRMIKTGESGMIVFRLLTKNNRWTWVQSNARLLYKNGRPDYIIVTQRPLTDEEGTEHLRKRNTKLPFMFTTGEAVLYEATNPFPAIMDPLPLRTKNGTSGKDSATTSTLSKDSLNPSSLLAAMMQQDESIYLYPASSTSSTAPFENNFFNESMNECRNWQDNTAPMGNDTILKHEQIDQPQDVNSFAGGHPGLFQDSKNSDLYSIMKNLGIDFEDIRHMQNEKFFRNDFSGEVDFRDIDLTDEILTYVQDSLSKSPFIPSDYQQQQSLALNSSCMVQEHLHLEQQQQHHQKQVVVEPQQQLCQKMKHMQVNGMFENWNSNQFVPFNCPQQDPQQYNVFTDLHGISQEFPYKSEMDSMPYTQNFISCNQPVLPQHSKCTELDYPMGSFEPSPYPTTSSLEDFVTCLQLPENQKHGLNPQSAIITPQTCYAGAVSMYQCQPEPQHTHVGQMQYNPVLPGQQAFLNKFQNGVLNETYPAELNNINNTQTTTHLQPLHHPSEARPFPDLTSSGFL
# Procedure: The ability of compounds of formula (I) to antagonize AhR was tested as follow. HEPG2 and HEPA1C1C7 cells were maintained in MEM and αMEM without nucleosides supplemented with 10% heat inactivated FBS respectively. Stably integrated DRE-luciferase cell lines were generated by transducing the both cell lines with Cignal XRE luciferase reporter (Qiagen) lentiviral particles according to the manufacturer protocol. For both cell lines, stably integrated reporter cell lines were selected for the presence of 2 μg/mL puromycin. Following selection of stably integrated cell line pools, clonal cell lines were isolated by limiting dilution in 96-well plates. […]
# To determine AhR antagonist activity of compound of formula (I), the compounds were added in a semi-log dose response using a D300e Digital Dispenser (Tecan) followed normalization with vehicle (DMSO). […] Firefly luciferase activity was measured immediately following the addition of 50 μL Luciferase Assay Reagent (Promega). The percent maximal activity for each point was determined using the following equation: (RLUsample−RLUvehicle−TCDD)/(RLUvehicle+TCDD RLUvehicle−TCDD)*100. The relative IC50, defined as the compound concentration required to reduce the TCDD induced response between the top and bottom plateau of each individual dose response curve by half, for each compound was determined using Prism7 (GraphPad Software).
# [3] = compound concentration 3,333 nM
smiles,measurement,setting,value
"Cc1cc(-c2ncc3cc(C(F)(F)F)ccc3n2)ccc1N1CCn2ncc(C)c2C1=O [Example 002, 3-methyl-5-(2-methyl-4-(6-(trifluoromethyl)quinazolin-2-yl)phenyl)-6,7-dihydropyrazolo[1,5-a]pyrazin-4(5H)-one]","frequency of CD34+ HSC, fold increase","[1]; compound concentration 1,111 nM",3.6 fold
same,"CD34+ cell counts, fold expansion","[1]; compound concentration 10,000 nM",4.0 fold
"Cc1cc(-c2ncc3nc(C(F)(F)F)ccc3n2)ccc1N1CCOc2cnn(C)c2C1=O [Example 001, 1-methyl-7-(2-methyl-4-(6-(trifluoromethyl)pyrido[3,2-d]pyrimidin-2-yl)phenyl)-6,7-dihydro-1H-pyrazolo[3,4-f][1,4]oxazepin-8(5H)-one]","CD34+ cell counts, fold expansion",[1]; [3],2.4 fold
same,"frequency of CD34+ HSC, fold increase",[1]; [3],3.1 fold
"Cc1cc(-c2ncc3cc(C(F)(F)F)ccc3n2)ccc1N1CCOc2cn[nH]c2C1=O [Example 033, 7-(2-methyl-4-(6-(trifluoromethyl)quinazolin-2-yl)phenyl)-6,7-dihydro-1H-pyrazolo[3,4-f][1,4]oxazepin-8(5H)-one]",IC50,[2],< 200 nM
"Cc1cc(-c2ncc3cc(C(F)(F)F)ccc3n2)ccc1N1CCOc2cnn(CCO)c2C1=O [Example 034, 1-(2-hydroxyethyl)-7-(2-methyl-4-(6-(trifluoromethyl)quinazolin-2-yl)phenyl)-6,7-dihydro-1H-pyrazolo[3,4-f][1,4]oxazepin-8(5H)-one]",IC50,[2],200 to 500 nM

# — patent US20210254006A1, “METHODS OF CULTURING AND/OR EXPANDING STEM CELLS AND/OR LINEAGE COMMITTED PROGENITOR CELLS USING LACTAM COMPOUNDS” (IDEAYA BIOSCIENCES, INC., priority 2018, published 2021)
